These results are taken from patent publication US20090069319A1, “IMIDAZOPYRIDINE ANALOGS AND THEIR USE AS AGONISTS OF THE WNT-BETA-CATENIN CELLULAR MESSAGING SYSTEM” (Wyeth, priority 2007, published 2009).

Each structure is given as a SMILES string.

The nature of the test: Functional Dkk1-LRP5-TCF-Luciferase Assay in U2OS Cells (table columns: A=MAX FOLD Induction/DMSO CONTROL; B=fold induction @ 2.0 uM; C=fold induction @ 20.0 uM). It is filed as cell-based, Human. To be noted: Homo sapiens, U2OS; for fold induction at 2 µM: 2.0 uM compound; for fold induction at 20 µM: 20.0 uM compound. As for the experimental part:
Biological Evaluation—Functional Dkk1-LRP5-TCF-Luciferase Assay in U2OS Cells
U2OS Human Bone derived cells (Osteosarcoma) are grown in McCoy's 5A Medium (Modified), with L-glutamine (GIBCO Cat No. 16600-082)+1% Pen-Strep+5% FBS) plated at 1×10^7 cells/T175 cm flask. The next day, the cells are co-transfected overnight with the following plasmids: (a) Test reporter (16×TCF-TK-FireFly-Luci), (b) Internal Control Reporter (TK-Renilla-Luci), (c) Wnt3a and (d) Dkk1. GIBCO's Lipofectamine 2000 and OptiMEM were used for the transfection. After a minimum of 4 hr of transfection at 37° C., the plasmid-transfected cells are trypsinized, counted, and suspended in freezing medium (95% FBS+5% DMSO). The reporter cells are frozen at 1×10^7/ml concentrations, aliquoted into 0.5 ml or 2.5 ml/tube and stored at −70° C.
The following day, test compounds are added under HTS setup by Plate Track into 384 well plates (white, TC treated, Falcon plate) such that the final concentration of the compounds in 20 μL/well cell will be 5 μg/ml (final concentration of DMSO=0.25% and final compound concentration=20 μM). Vials of frozen reporter cells are thawed by warming the vial in a 37° C. water bath for 60-120 seconds with some shaking until the cells formed a suspension. The thawed cells are transferred into a cold 50 ml (or larger) tube and mixed well by gentle pipetting. The appropriate amount of cold Phenol Red Free RPMI medium-1640 (GIBCO, Cat # 11835-030) with L-glutamine is added, both with ˜5% FBS (GIBCO-BRL, Cat. # 16000-044), so that 20 μl of the final cell suspension will contain ˜5,000 cells. The cell dilution is done such that the final concentration of FBS was ˜5%. Diluted cells (20 μl) are added into each well in a 384 well plate. The plate is incubated at 37° C. under 5% CO2 for ˜20 h. Bright-Glo substrate, 2.5 μl/well is added, and the Fire Fly Luciferase is measured using VLUX (60 second exposure) immediately after the substrate was added. Test compounds are dissolved in DMSO (100%) and added to specified wells. Raw luciferase signal data obtained as relative luminescence units (RLUs) for the test compounds are normalized to the signal of the mean of the sample reporter cell plate with DMSO.
Active compounds have TCF-luciferase ratios of 2.5 fold or greater over DMSO. All compounds show a signal increase of at least 10% compared to a signal with only DMSO added.
A=MAX FOLD Induction/DMSO CONTROL
B=TCF ACTIVITY/DMSO CONTROL Fold induction @ 2.0 uM C=TCF ACTIVITY/DMSO CONTROL Fold induction @ 20.0 uM

For the molecule `FC(F)(F)c1cccc(Oc2cccc(-c3nc4c(-c5ccc6ccccc6c5)ccnc4n3C3CCNCC3)c2)c1` [7-(2-naphthyl)-3-piperidin-4-yl-2-{3-[3-(trifluoromethyl)phenoxy]phenyl}-3H-imidazo[4,5-b]pyridine], the fold induction at 2 µM came out at 1.29.

Regarding `c1ccc2cc(-c3ccnc4c3nc(-c3ncc[nH]3)n4C3CCNCC3)ccc2c1` [2-(1H-imidazol-2-yl)-7-(2-naphthyl)-3-piperidin-4-yl-3H-imidazo[4,5-b]pyridine], the fold induction at 2 µM was 1.42.

Consider `COc1cccc(-c2nc3c(-c4ccc5ccccc5c4)ccnc3n2C2CCNCC2)c1` [2-(3-methoxyphenyl)-7-(2-naphthyl)-3-piperidin-4-yl-3H-imidazo[4,5-b]pyridine], for which the fold induction at 2 µM worked out at 1.25.

As for `Cc1ccc(CCn2c(C)nc3c(-c4ccc5ccccc5c4)ccnc32)cc1` [2-methyl-3-[2-(4-methylphenyl)ethyl]-7-(2-naphthyl)-3H-imidazo[4,5-b]pyridine], the fold induction at 2 µM came to 0.82 and the fold induction at 20 µM was 1.

Take `C=Cc1cccc(-c2nc3c(-c4ccc5ccccc5c4)ccnc3n2C2CCNCC2)c1` [7-(2-naphthyl)-3-piperidin-4-yl-2-(3-vinylphenyl)-3H-imidazo[4,5-b]pyridine]: the fold induction at 2 µM is 1.44.

With `Fc1ccc(-c2nc3c(-c4ccc5ccccc5c4)ccnc3n2C2CCNCC2)c(C(F)(F)F)c1` [2-[4-fluoro-2-(trifluoromethyl)phenyl]-7-(2-naphthyl)-3-piperidin-4-yl-3H-imidazo[4,5-b]pyridine], the fold induction at 2 µM stood at 1.11.

Consider `CC(C)(C)c1ccc(-c2nc3c(-c4ccc5ccccc5c4)ccnc3n2C2CCNCC2)cc1` [2-(4-tert-butylphenyl)-7-(2-naphthyl)-3-piperidin-4-yl-3H-imidazo[4,5-b]pyridine], for which the fold induction at 2 µM turned out to be 1.88.

With `Clc1cccc(-c2nc3c(-c4ccc5ccccc5c4)ccnc3n2C2CCNCC2)c1` [2-(3-chlorophenyl)-7-(2-naphthyl)-3-piperidin-4-yl-3H-imidazo[4,5-b]pyridine], the fold induction at 2 µM amounted to 1.5.

For `CC(C)c1nc2cc(-c3ccc4ccccc4c3)cnc2n1C1CCNCC1` [2-isopropyl-6-(2-naphthyl)-3-piperidin-4-yl-3H-imidazo[4,5-b]pyridine], the fold induction at 2 µM is 1.44.

For `N#Cc1ccc(-c2nc3c(-c4ccc5ccccc5c4)ccnc3n2C2CCNCC2)cc1` [4-[7-(2-naphthyl)-3-piperidin-4-yl-3H-imidazo[4,5-b]pyridin-2-yl]benzonitrile], the fold induction at 2 µM came out at 1.58.

As for `Clc1cccc(-c2nc3cc(-c4ccc5ccccc5c4)cnc3n2C2CCNCC2)c1` [2-(3-chlorophenyl)-6-(2-naphthyl)-3-piperidin-4-yl-3H-imidazo[4,5-b]pyridine], the fold induction at 2 µM was 0.98.

`c1ccc2cc(-c3ccnc4c3nc(-c3ccnc5ccccc35)n4C3CCNCC3)ccc2c1` [4-[7-(2-naphthyl)-3-piperidin-4-yl-3H-imidazo[4,5-b]pyridin-2-yl]quinoline]: the fold induction at 2 µM was 1.07.

Consider `c1ccc2cc(-c3ccnc4c3nc(-c3ccc5occc5c3)n4C3CCNCC3)ccc2c1` [2-(1-benzofuran-5-yl)-7-(2-naphthyl)-3-piperidin-4-yl-3H-imidazo[4,5-b]pyridine], for which the fold induction at 2 µM is 0.9 and the fold induction at 20 µM was found to be 1.02.

In the case of `Cn1c(=O)n(C2CCN(C(=O)N3CCOCC3)CC2)c2nccc(-c3ccc4ccccc4c3)c21` [1-methyl-3-[1-(morpholin-4-ylcarbonyl)piperidin-4-yl]-7-(2-naphthyl)-1,3-dihydro-2H-imidazo[4,5-b]pyridin-2-one], the fold induction at 2 µM was 1.29 and the fold induction at 20 µM was determined as 0.21.

With `Cn1c(-c2nc3c(-c4ccc5ccccc5c4)ccnc3n2C2CCNCC2)cc2ccccc21` [2-(1-methyl-1H-indol-2-yl)-7-(2-naphthyl)-3-piperidin-4-yl-3H-imidazo[4,5-b]pyridine], the fold induction at 2 µM stood at 1.17.

By fold induction is commonly meant the signal under treatment as a multiple of the control signal.
